PubChem BioAssay (NCI)
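Cells were grown in 96-well plates and exposed to each compound for 48 hours at five concentrations; endpoints were interpolated linearly between bracketing concentrations, or set to the highest concentration if not reached. The concentration for 50% growth inhibition is given as GI50. TGI is the concentration that stops growth completely.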

What was measured:
Assay in all cases: NCI tumour cell line growth inhibition, 48 h
[1] = system: SW-620 colon
[2] = system: MALME-3M melanoma
[3] = system: ACHN renal
[4] = system: HCT-116 colon
[5] = system: SK-MEL-2 melanoma
[6] = system: K-562 leukemia
[7] = system: SF-268 CNS
[8] = system: HOP-62 NSCLC
[9] = system: MDA-MB-435
[10] = system: BT-549 breast

Row | Compound | TGI [1] | TGI [2] | TGI [3] | TGI [4] | TGI [5] | TGI [6] | TGI [7] | TGI [8] | TGI [9] | TGI [10] | GI50 [1] | GI50 [4] | GI50 [6] | GI50 [7] | GI50 [10] | GI50 [8] | GI50 [5]
1 | O=c1cc(-c2ccccc2)[nH]c2c(F)ccc(F)c12 | > 100 µM | 96.3 µM | > 100 µM | > 100 µM | 77.1 µM | > 100 µM | > 100 µM | > 100 µM |  |  |  |  |  |  |  |  | 
2 | COc1ccc(C2=C(N)c3cc(OC)ccc3C2=O)cc1 | > 100 µM | > 100 µM | > 100 µM | > 100 µM | > 100 µM |  | > 100 µM | > 100 µM | > 100 µM | > 100 µM |  |  |  |  |  |  | 
3 | C=C1CC2C[C@H](OS(=O)(=O)c3ccc(C)cc3)C(C1)N2C (some centres undefined) | > 100 µM | > 100 µM |  | > 100 µM | > 100 µM | > 100 µM | > 100 µM | > 100 µM | > 100 µM | > 100 µM |  |  |  |  |  |  | 
4 | COc1ccc(Nc2ccnc3cc(Cl)ccc23)cc1CN(CCCl)CCCl | 7.38 µM |  |  | 3.84 µM |  | > 22.7 µM | 4.89 µM | 4.01 µM |  | 13 µM | 1.59 µM | 1.14 µM | 1.53 µM | 1.15 µM | 1.78 µM | 1.37 µM | 
5 | CO/C=C(/C(=O)OC)c1ccccc1[C@H]1C[C@@H]1c1ccccc1 |  | 41.3 µM | 60.6 µM | 62.5 µM | 34.8 µM | > 100 µM | 82.5 µM | > 100 µM | 43.3 µM | 52.2 µM |  |  |  |  |  |  | 
6 | Cc1cccc(-c2cc(=O)c3cc(C)cnc3[nH]2)c1 |  | > 100 µM | > 100 µM | 11.4 µM | > 100 µM | > 33.3 µM | > 100 µM | > 100 µM |  | > 58.3 µM |  |  |  |  |  |  | 
7 | CC1CN=C(N(C(=O)Nc2ccccc2)C2CCCCC2)S1 (centres undefined) | 28.5 µM | 32 µM | 26.3 µM | 33.1 µM | 29.5 µM | 73.2 µM | 46 µM | > 100 µM |  |  |  |  |  |  |  |  | 
8 | CC1C/C(=C\c2ccc(O)c(O)c2)C(=O)/C(=C/c2ccc(O)c(O)c2)C1 (centres undefined) | 34.6 µM | 25.1 µM | 21.6 µM | 20 µM | 34.8 µM | 27.4 µM | 32.1 µM | 24.4 µM | 9.74 µM |  |  |  |  |  |  |  | 
9 | CCOC(=O)N1c2c(c3ccccc3n2C(=O)OCC)C(=O)C(OC)N1C(=O)OCC (centres undefined) | > 100 µM | 69.8 µM | 92.7 µM | 86.9 µM | 36.4 µM | > 100 µM |  | > 100 µM | > 100 µM | > 100 µM |  |  |  |  |  |  | 
10 | Cc1nc2cccc(F)c2c(=O)n1-c1nnc(C2CC2)s1 | > 10 µM |  | > 10 µM | > 10 µM | > 10 µM | > 10 µM | > 10 µM | > 10 µM | > 10 µM |  |  |  |  |  |  |  | 
11 | CN(C)CC(C)(C)C(=O)/C=C/c1ccccc1 | 31.1 µM | 24.1 µM | 33.3 µM | 27.4 µM |  | 33.7 µM |  | 96.3 µM |  |  |  |  |  |  |  |  | 
12 | CC(=O)c1nc(C#N)c(N)o1 | > 100 µM | > 100 µM | > 100 µM | > 100 µM | > 100 µM | > 100 µM | > 100 µM | > 100 µM | > 100 µM |  |  |  |  |  |  |  | 
13 | H-KIFKKFKTIIKKVWRIFGRF-NH2 |  |  |  | > 100 µM | 6.23 µM | > 100 µM | 5.45 µM |  |  | > 100 µM |  | 3.22 µM | 2.82 µM | 2.08 µM | 3.54 µM |  | 2.63 µM
14 | CC1CC2OC(=N)C1(C#N)C2(C#N)C#N (centres undefined) | > 100 µM | 48.9 µM | > 100 µM | 43.3 µM | 43.5 µM | 56.2 µM | 66.3 µM | 35.2 µM | > 100 µM |  |  |  |  |  |  |  | 
15 | N#CC(NNC(=O)c1c(Cl)c(Cl)c(Cl)c(Cl)c1-c1nc2ccc(C(=O)c3ccccc3)cc2[nH]1)c1cccc(Oc2ccccc2)c1 (centres undefined) | > 100 µM |  | 88.8 µM | > 100 µM | 47.2 µM | > 100 µM |  | 70.2 µM | 53.6 µM | 64.8 µM |  |  |  |  |  |  | 
16 | COC1OC(=O)C(OC)C(OC)C1OC (centres undefined) | > 100 µM |  | > 100 µM | > 100 µM | > 100 µM | > 100 µM | > 100 µM | > 100 µM | > 100 µM | > 100 µM |  |  |  |  |  |  | 
17 | N#Cc1nc(-c2ccccn2)c(-c2ccccn2)nc1C#N | > 43.5 µM |  | 7.95 µM | 3.27 µM | 10.6 µM | 19.4 µM | 7.12 µM | 17 µM | 22.4 µM | 12.1 µM |  |  |  |  |  |  | 
18 | O=C(CSCC(=O)N/N=C\c1cccc(Br)c1)N/N=C\c1cccc(Br)c1 | 77.4 µM |  | 26.4 µM | 27.9 µM | 91.3 µM | 68.4 µM | 37.9 µM | 31.7 µM | 44.7 µM | 48.2 µM |  |  |  |  |  |  | 
19 | Oc1[nH]c2ccccc2c1N=NC(=S)NCc1ccccn1 | 22.3 µM | 17.9 µM | 2.25 µM | 15.1 µM | 28.7 µM |  | 3.84 µM | 6.87 µM | 17.4 µM | 17.5 µM |  |  |  |  |  |  | 
20 | Cn1c(-c2cccs2)cc(-c2ccsc2)c1-c1ccsc1 | > 100 µM | > 100 µM | > 100 µM | > 100 µM |  | > 100 µM | > 100 µM | > 100 µM | > 100 µM | > 100 µM |  |  |  |  |  |  | 
21 | O=C1CSC2=NC3=C(COC/C3=C\c3ccc(F)cc3)C(c3ccc(F)cc3)N12 (centres undefined) | > 100 µM |  | > 100 µM | > 100 µM | > 100 µM | > 100 µM | > 100 µM | > 100 µM | > 100 µM | > 100 µM |  |  |  |  |  |  | 
22 | [O-][n+]1cc(SCc2ccccc2)ncc1SCc1ccccc1 |  | > 10 µM | > 10 µM | > 10 µM | > 10 µM | > 10 µM | > 10 µM | > 10 µM | > 10 µM | > 10 µM |  |  |  |  |  |  | 
